# In patent publication US20230348376A1 (TEIJIN PHARMA LIMITED, priority 2020, published 2023):
# Key:
# [1] = tested on: mouse neural stem cells (NSCs); assay: Promoting activity in oligodendrocyte differentiation of mouse neural stem cell (GalC immunostaining); type: cell-based; conditions: for Gal/C positive ratio Average value: day 10, N=5
# Method: To NSC basal medium (100 mL) included in this product, B27 (1 mL), Penicillin-Streptomycin (1 mL), Glutamine (1 mL), bFGF (20 μL), EGF (10 μL), and Heparin (100 μL) were added to prepare the growth medium. Mouse neural stem cells were reconstituted in a T-25 flask using the growth medium and proliferated as a neurosphere by suspension culture. The cells were expanded by passaging at a split ratio=1:2 in a CO2 incubator (5% CO2, 37° C., wet) to obtain the required number of cells. ACCUTASE (Innovative Cell Technologies, Cat. No. AT104) was used as the passage reagent.
# The differentiation medium containing test substance was prepared to a target final concentration by diluting a solution of 20 mM compound in DMSO to 10-fold with DMSO and then to 2×10^5-fold with the differentiation medium. Additive-free differentiation medium for control was prepared by diluting DMSO to 2×10^5-fold with the differentiation medium to be a final concentration of 5×10^−5%.
# The mouse neural stem cells were seeded on a poly-L-Lysine/Laminin-coated 96-well plate at a cell density of 2.0×10^4 cells/100 μL/well using the differentiation medium and the culture was started in a CO2 incubator (5% CO2, 37° C., wet). The next day, the medium was replaced with the differentiation medium containing a test substance or an additive-free differentiation medium for control, and evaluation of the test substance (N=5) was started (day 0). The medium was replaced every other day by 60% of the medium in the wells. On day 10, cells were fixed and immunostained.
# After the medium was removed, the cells were fixed by adding 100 μL of 4% paraformaldehyde-PBS and being incubated at room temperature for 30 minutes. Next, the cells were washed 3 times with PBS, 100 μL of 5% Goat Serum/PBS was added thereto, and the mixture was incubated at room temperature for 30 minutes to perform blocking and membrane permeation treatment. […] After the cells were washed 3 times with PBS, 100 μL of PBS was added to the wells, and the wells were photographed with fluorescence microscopy. Images were taken under the same condition in all wells, and blue fluorescence and green fluorescence were simultaneously photographed.
# Using the hybrid cell counting software provided in the fluorescence microscope (Keyence, BZ-X700), co-localized spots of green fluorescence and blue fluorescence were extracted, and the number of these spots was defined as the total number of GalC-positive cells, and the oligodendrocyte differentiation ratio was calculated by the following calculation:the total number of GalC-positive cells/the number of nuclei (number of blue fluorescence spots). A significant difference test was performed by t-test between the additive-free group and the sample-added group.
# human VDR = molecular target: T1, human VDR (Homo sapiens, UniProt P11473); assay: Evaluation of VDR transcription activity in human osteoblasts (HOS cells), luciferase reporter; conditions: Activity (EC50, VDR transcription activity), HOS cells transfected with human VDR, human RXRα and DR3 luciferase reporter; 21 hours
# T1 sequence (P11473 1-427): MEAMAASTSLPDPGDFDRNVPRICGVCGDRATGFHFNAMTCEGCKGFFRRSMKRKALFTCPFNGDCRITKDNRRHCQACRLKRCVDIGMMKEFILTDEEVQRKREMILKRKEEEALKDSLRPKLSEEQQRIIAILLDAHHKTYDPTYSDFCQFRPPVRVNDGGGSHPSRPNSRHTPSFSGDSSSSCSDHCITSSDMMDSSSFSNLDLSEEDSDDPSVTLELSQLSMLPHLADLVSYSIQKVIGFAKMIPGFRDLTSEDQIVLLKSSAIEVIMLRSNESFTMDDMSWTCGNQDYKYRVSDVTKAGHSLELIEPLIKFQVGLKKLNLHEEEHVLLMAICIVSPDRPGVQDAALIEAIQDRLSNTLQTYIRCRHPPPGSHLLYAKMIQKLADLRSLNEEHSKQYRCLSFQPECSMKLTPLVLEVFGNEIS
# T1 sequence (P19793 1-462 partner): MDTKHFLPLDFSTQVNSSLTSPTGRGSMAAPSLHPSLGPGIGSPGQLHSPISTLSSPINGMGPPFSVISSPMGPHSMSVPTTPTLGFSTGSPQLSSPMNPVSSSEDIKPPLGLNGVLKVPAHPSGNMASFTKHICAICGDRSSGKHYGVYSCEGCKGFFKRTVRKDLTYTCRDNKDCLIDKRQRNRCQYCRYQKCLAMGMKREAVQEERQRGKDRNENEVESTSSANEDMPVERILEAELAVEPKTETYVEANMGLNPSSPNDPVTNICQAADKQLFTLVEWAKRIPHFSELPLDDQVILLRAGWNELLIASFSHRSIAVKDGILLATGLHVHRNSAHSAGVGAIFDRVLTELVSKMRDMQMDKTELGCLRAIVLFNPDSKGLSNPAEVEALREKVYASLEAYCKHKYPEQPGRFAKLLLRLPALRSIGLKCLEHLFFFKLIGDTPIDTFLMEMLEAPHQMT
# [2] = tested on: rat oligodendrocyte progenitor cells; assay: Promotive activity of rat oligodendrocyte progenitor cell differentiation-1 (MBP gene expression, mRNA); type: cell-based; conditions: 4 days, MBP/β actin mRNA; for activation at 1 µM: Rattus norvegicus, Oligodendrocyte progenitor cell, 96 h, read-out: promotive activity at T3 base (MBP gene expression; DMSO 0%, T3 100%)
# In short: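 Primary OPCs from 1-day-old SD rat forebrain, isolated by shaking off mixed glial cultures and seeded at 2×10^3 cells/well in B27/CNTF (10 ng/mL) differentiation medium with compound. MBP mRNA measured by one-step TaqMan real-time PCR and expressed as MBP/β-actin ratio.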
# [3] = tested on: rat oligodendrocyte progenitor cells; assay: Promotive activity of rat oligodendrocyte progenitor cell differentiation-2 (immunostaining of MBP); type: cell-based; conditions: vitamin D derivative 2 μM, T3 30 nM, 4 days
# In short: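 Vitamin D derivatives scored as symbols for promoting differentiation, read out by MBP immunostaining. OPCs taken from supernatant after about 22 h shaking (37 °C, 200 rpm) in separation medium.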
# [4] = Evaluation of calcium increasing action in normal mice (serum calcium); type: in vivo, mouse; conditions: for Serum calcium concentration: repeated oral once a day, 2 weeks, C57BL/6J mice; for Calcium concentration Fluctuation range: vs vehicle 8.9 mg/dL
# Method: After acclimatizing C57BL/6J mice (7 weeks old, male) for 1 week, the mice were divided into groups of 5 mice based on the body weight, and administration of the compound or vehicle was started. The administration solution used was a compound (in ethanol) or ethanol diluted 100-fold with 0.1% Trion X-100 (SIGMA #X100-100ML)/saline, and the repeated oral administration at once a day was performed. After administration of 2 weeks, euthanasia was performed by collecting all blood under general anesthesia.
# [5] = Evaluation of brain penetration in mice (blood and brain concentration at brain Cmax); type: in vivo, mouse; conditions: 0.2 mg/kg single oral dose, C57BL/6J mice; for Concentration in blood at brain Cmax / Concentration in brain at brain Cmax: n=3; for Kp: male, C57BL/6J, mouse, brain/plasma, po, 0.2 mg/kg, read-out: Concentration ratio in brain/in blood at brain Cmax
# In short: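 Male C57BL/6J mice (8 weeks, n=3) dosed orally once at 1 […] mg/kg; plasma and brain collected at 0.25, 0.5, 1, 2, 4 and 8 h. Compound extracted with acetonitrile from brain homogenate and plasma, quantified by LC/MS/MS.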
compound,measurement,setting,value
"C=C1/C(=C\C=C2/CCC[C@]3(C)[C@@H]([C@H](C)CCN4CCOC[C@@H]4C)CC[C@@H]23)C[C@@H](O)CC1O (stereo in doubt) [Compound D045, (1R,3R,Z)-5-(2-((1R,3aS,7aR,E)-7a-methyl-1-((R)-4-((S)-3-methylmorpholino)butan-2-yl)octahydro-4H-inden-4-ylidene)ethylidene)-4-methylenecyclohexane-1,3-diol]",Gal/C positive ratio Average value,[1]; 10 nM,11.46
same,Gal/C positive ratio Average value,[1]; 100 nM,12.01
same,Gal/C positive ratio Average value,[1]; 1000 nM,14.93
same,EC50,human VDR,10 to 100 nM
"C=C1/C(=C\C=C2/CCC[C@]3(C)[C@@H]([C@H](C)CCCC(C)(C)O)CC[C@@H]23)C[C@@H](O)C[C@@H]1O [1α,25-dihydroxyvitamin D3, reference compound]","promotive activity at T3 base (MBP gene expression; DMSO 0%, T3 100%)",[2]; 1 μM,0%
same,promoting activity in a Gal/C-positive oligodendrocyte differentiation,[1]; 1000 nM,1.5 times
"C[C@H](CCN1CCOC[C@H]1C)[C@H]1CC[C@H]2/C(=C/C=C3C[C@@H](O)C[C@H](O)C3)CCC[C@]12C [Compound D042, (1R,3R)-5-(2-((1R,3aS,7aR,E)-7a-methyl-1-((R)-4-((R)-3-methylmorpholino)butan-2-yl)octahydro-4H-inden-4-ylidene)ethylidene)cyclohexane-1,3-diol]",Gal/C positive ratio Average value,[1]; 10 nM,12.25
same,Gal/C positive ratio Average value,[1]; 100 nM,14.27
same,Gal/C positive ratio Average value,[1]; 1000 nM,15.80
same,EC50,human VDR,10 to 100 nM
"C[C@H](CCN1CCOC[C@@H]1C)[C@H]1CC[C@H]2/C(=C/C=C3C[C@@H](O)C[C@H](O)C3)CCC[C@]12C [Compound D043, (1R,3R)-5-(2-((1R,3aS,7aR,E)-7a-methyl-1-((R)-4-((S)-3-methylmorpholino)butan-2-yl)octahydro-4H-inden-4-ylidene)ethylidene)cyclohexane-1,3-diol]",activation at 1 µM,[2],≥ 20%
same,Gal/C positive ratio Average value,[1]; 10 nM,12.81
same,Gal/C positive ratio Average value,[1]; 100 nM,12.27
same,Gal/C positive ratio Average value,[1]; 1000 nM,16.09
"C[C@H](CCCN1CCOCC1)[C@H]1CC[C@H]2/C(=C/C=C3C[C@@H](O)C[C@H](O)C3)CCC[C@]12C [Compound D044, (1R,3R)-5-(2-((1R,3aS,7aR,E)-7a-methyl-1-((R)-5-morpholinopentan-2-yl)octahydro-4H-inden-4-ylidene)ethylidene)cyclohexane-1,3-diol]",activation at 1 µM,[2],≥ 20%
same,Gal/C positive ratio Average value,[1]; 10 nM,9.10
same,Gal/C positive ratio Average value,[1]; 100 nM,8.22
same,Gal/C positive ratio Average value,[1]; 1000 nM,12.37
same,EC50,human VDR,1 to 10 nM
"C[C@H](CN1CCOC[C@@H]1C)[C@H]1CC[C@H]2/C(=C/C=C3C[C@@H](O)C[C@H](O)C3)CCC[C@]12C [Compound G004, (1R,3R)-5-(2-((1R,3aS,7aR,E)-7a-methyl-1-((S)-1-((S)-3-methylmorpholino)propan-2-yl)octahydro-4H-inden-4-ylidene)ethylidene)cyclohexane-1,3-diol]",Mean (number of MBP-positive cells/number of Hoechst33342-positive cells),[3]; Test 3,0.27
same,Serum calcium concentration,[4]; 20 μg/kg,8.9 mg/dL
same,Calcium concentration Fluctuation range,[4]; 20 μg/kg,0 mg/dL
same,Serum calcium concentration,[4]; 60 μg/kg,8.8 mg/dL
same,Calcium concentration Fluctuation range,[4]; 60 μg/kg,-0.1 mg/dL
same,Serum calcium concentration,[4]; 200 μg/kg,9.0 mg/dL
same,Calcium concentration Fluctuation range,[4]; 200 μg/kg,0.1 mg/dL
same,Concentration in blood at brain Cmax,[5],72.2 ± 10.4 nM
same,Concentration in brain at brain Cmax,[5],171.2 ± 37.4 pmol/g
same,Kp,[5],2.35
"C[C@H](CN1CCOCC1(C)C)[C@H]1CC[C@H]2/C(=C/C=C3C[C@@H](O)C[C@H](O)C3)CCC[C@]12C [Compound G006, (1R,3R)-5-(2-((1R,3aS,7aR,E)-1-((S)-1-(3,3-dimethylmorpholino)propan-2-yl)-7a-methyloctahydro-4H-inden-4-ylidene)ethylidene)cyclohexane-1,3-diol]",Mean (number of MBP-positive cells/number of Hoechst33342-positive cells),[3]; Test 4,0.50
same,Serum calcium concentration,[4]; 20 μg/kg,8.9 mg/dL
same,Calcium concentration Fluctuation range,[4]; 20 μg/kg,0 mg/dL
same,Serum calcium concentration,[4]; 60 μg/kg,8.9 mg/dL
same,Calcium concentration Fluctuation range,[4]; 60 μg/kg,0 mg/dL
same,Serum calcium concentration,[4]; 200 μg/kg,8.6 mg/dL
same,Calcium concentration Fluctuation range,[4]; 200 μg/kg,-0.3 mg/dL
same,Concentration in blood at brain Cmax,[5],58.9 ± 0.5 nM
same,Concentration in brain at brain Cmax,[5],137.8 ± 11.5 pmol/g
same,Kp,[5],2.38
